Laboratory results taken from ChEMBL document CHEMBL1134161, “Stereospecific synthesis of (2S)-2-methyl-3-(2',6'-dimethyl-4'-hydroxyphenyl)-propionic acid (Mdp) and its incorporation into an opioid peptide” (Bioorg Med Chem Lett, 2001).
Peptide text beside a SMILES is read from it. * marks the point of attachment. X1 = Cc1cc(O)cc(C)c1C[C@H](C)C(=O)*

What was measured:
[1] = target: Kappa-type opioid receptor (Homo sapiens, UniProt P41145); experiment: Tested for binding affinity towards Opioid receptor kappa 1
Mus musculus [2] = species on record: Mus musculus; experiment: In vitro inhibition of electrically evoked contractions of mouse vas deferens(MVD); format: functional, organism-based
Cavia porcellus [3] = species on record: Cavia porcellus; experiment: In vitro inhibition of electrically evoked contractions of guinea pig ileum(GPI); format: functional
Cavia porcellus [4] = species on record: Cavia porcellus; experiment: Tested for antagonistic activity against Mu agonist TAPP in the GPI assay; format: functional
Mus musculus [5] = species on record: Mus musculus; experiment: Tested for antagonistic activity against Delta agonist DPDPE in the MVD assay; format: functional

Sequence of Kappa-type opioid receptor (P41145 whole entry): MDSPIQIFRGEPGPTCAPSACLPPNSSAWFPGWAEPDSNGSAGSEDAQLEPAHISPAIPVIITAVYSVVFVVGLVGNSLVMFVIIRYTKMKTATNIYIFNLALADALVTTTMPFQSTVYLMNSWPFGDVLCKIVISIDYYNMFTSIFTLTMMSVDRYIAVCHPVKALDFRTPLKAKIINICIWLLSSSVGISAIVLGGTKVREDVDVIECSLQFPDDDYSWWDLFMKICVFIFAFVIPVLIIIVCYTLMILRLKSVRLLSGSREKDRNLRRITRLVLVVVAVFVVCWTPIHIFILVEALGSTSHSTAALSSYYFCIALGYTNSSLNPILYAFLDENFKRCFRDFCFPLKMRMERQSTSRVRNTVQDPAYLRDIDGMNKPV

Compound	Ki [1] [nM]	IC50 (Mus musculus [2]) [nM]	IC50 (Cavia porcellus [3]) [nM]	Ke (Cavia porcellus [4]) [nM]	Ke (Mus musculus [5]) [nM]
Cc1cc(O)cc(C)c1C[C@H](N)C(=O)N[C@@H](C)C(=O)NCC(=O)N[C@@H](Cc1ccccc1)C(=O)N[C@@H](CC(C)C)C(N)=O	> 10000	0.212	0.586	–	–
Cc1cc(O)cc(C)c1C[C@H](C)C(=O)N[C@@H](C)C(=O)NCC(=O)N[C@@H](Cc1ccccc1)C(=O)N[C@@H](CC(C)C)C(N)=O (X1-AGFL-NH2)	> 10000	–	–	154	28.1
